Columns and labels:
[1] = system: alpha-synuclein transfected U2OS cells; experiment: U2OS ATP assay (alpha-synuclein toxicity); assay type: cell-based, human; conditions: 72 h, titration
Description: U2OS cells were trypsinized using 0.25% trypsin-EDTA (Thermo Fisher) for 5 min at 37° C. followed by centrifugation at 800 rpm for 5 min at room temperature. Cell pellets were re-suspended in SE solution (Lonza Biologics, Inc.) at a density of […]. Alpha-synuclein wild-type or empty control (pcDNA) plasmids were transfected at a ratio of […] per 1,000,000 cells. For genetic modifier studies, mRab1a was titrated at various concentrations in the presence of SNCA plasmids. Nucleofection was performed using 4D-NUCLEOFECTOR™ System (Lonza Biosciences, Inc.) under program code CM130 in either 20 μL Nucleocuvette™ strips or 100 μl single Nucleocuvettes™. Cells recovered at room temperature for 10-15 minutes after nucleofection before further handling. Pre-warmed medium was added and cells were thoroughly but gently mixed to a homogenous suspension before plating. Cells were seeded at 2×10^4 cells/100 μl/well into 96 well PLD-coated white plates (Corning, Inc.) using a customized semi-automated pipetting program (VIAFLO 384/96, Integra Biosciences).
Powders of reference SCD inhibitors (CAY10566, A939572 and MF-438) were resuspended and serial diluted in DMSO. […] ATP content was then measured using the CellTiter-Glo® kit (Promega) with luminescence signals measured on an EnVision multimode plate reader (Perkin Elmer).

[2] = target: T1, human SCD5 (Homo sapiens, UniProt Q86SK9); experiment: Growth of humanized yeast expressing human SCD5 as sole desaturase; assay type: cell-based, Saccharomyces cerevisiae expressing Saccharomyces cerevisiae expressing Saccharomyces cerevisiae expressing Saccharomyces cerevisiae expressing Saccharomyces cerevisiae expressing human SCD5 SCD5 SCD5 SCD5 SCD5; conditions: yeast growth
T1 construct: host or cells: S. cerevisiae ole1Δ strain (W303 pdr1Δ pdr3Δ background), pRS316 plasmid, TDH3 promoter
T1 sequence (Q86SK9 1-330): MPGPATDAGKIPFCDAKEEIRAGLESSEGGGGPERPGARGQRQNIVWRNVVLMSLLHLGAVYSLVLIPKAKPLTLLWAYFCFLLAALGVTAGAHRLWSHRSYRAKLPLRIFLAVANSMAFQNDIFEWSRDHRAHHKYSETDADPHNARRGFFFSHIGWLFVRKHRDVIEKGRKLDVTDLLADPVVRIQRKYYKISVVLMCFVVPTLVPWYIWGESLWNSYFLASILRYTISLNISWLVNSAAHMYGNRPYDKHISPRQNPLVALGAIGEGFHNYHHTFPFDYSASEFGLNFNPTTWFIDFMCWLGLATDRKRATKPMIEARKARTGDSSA
From the text: To generate yeast strains expressing SCD1 or SCD5 as the sole desaturase, the human SCD1 and SCD5 genes were cloned from cDNAs (Harvard PlasmID database Clone ID HsCD00340237 for SCD1 and HsCD00342695 for SCD5) into yeast plasmid pRS316 (ATCC 77145) between the yeast TDH3 promoter and the CYC1 terminator. The coding sequence of yeast OLE1 was also cloned into this plasmid). These clones were then transformed into the ole1Δ strain and plated on CSM-Ura media (CSM lacking uracil) with 2% glucose (w/v) and independent colonies were isolated and amplified.
All compound profiling experiments were performed using the same basic protocol. Different genetic backgrounds (e.g., gene deletions) or conditions (e.g., addition of oleic and palmitoleic acid) were replaced as indicated below.
Compound stocks (10 mM in 100% DMSO) were arrayed into 384 round well, v-bottom polypropylene plates and diluted according to indicated dilution factors. Compound administration was performed in two separate steps. First, 15 μL of CSM-Galactose (induces expression of toxic protein) was dispensed into clear 384 well assay plates using a MULTIDROP™ Combi reagent dispenser. The diluted compound stock plates were then applied to the assay plates using an automated workstation (Perkin Elmer JANUS™) outfitted with a 384 pin tool containing slotted pins that deliver 100 nL of compound. The cultures described above were then diluted to a 2× concentration (0.03 and 0.08 for alpha-synuclein and ApoE, final OD600 of 0.015 and 0.04) in CSM-Galactose. For wild-type and Ole1/SCD1/SCD5 plasmid-containing strains, the 2× cell density was 0.02. In all experiments, 15 μL culture was then dispensed into the pinned assay plate to achieve 30 μL of the 1×OD600 culture and a top drug concentration of […]. For 96-well assays (FIGS. 2A and 2B), compound dilutions in DMSO were generated in 96 well plates and 1 μL was manually pipetted into 96 well clear bottom assay plates.
For experiments using a plasmid-borne copy of Ole1, SCD1, or SCD5 (FIGS. 4B, 7, and 8), media lacking uracil (SX-Ura, where X is glucose, raffinose, or galactose), was used for all steps of the compound profiling protocol to ensure its maintenance throughout the assay.
After yeast delivery, assay plates were incubated under humidified conditions at 30° C. for 24 to 40 h. ApoE4 rescue experiments were stopped at 24 h, aSyn experiments at 40 h, Ole1 at 24 h, and SCD1/SCD5 at 40 h. The growth of yeast was monitored by reading the OD600 of each well using a microplate reader (Perkin Elmer EnVision™). For model rescue experiments, raw data were processed by background subtracting and calculating a fold-change relative to DMSO control [(EXP−0.035)/(DMSO−0.035)—where 0.035 is the OD600 contributed by an empty well containing 30 μL of media alone]. For growth inhibition of wild-type cells, raw data were processed by background subtracting and converting values to a percent of the nontreated condition for that strain [(EXP−0.035)/(DMSO−0.035)×100%].

With Cc1nnc(-c2ccc(N3CCC(Oc4cc(F)ccc4Cl)CC3)nn2)o1 [CAY10566] the “cellular ATP levels” value [1] was “significantly reversed alpha-synuclein-dependent decreases in ATP levels in a concentration-dependent fashion” and the “half-maximal inhibitory concentration (IC50), SCD5 humanized strain” value [2] was “low nanomolar”.

— patent publication US20200222400A1, “METHODS FOR THE TREATMENT OF NEUROLOGICAL DISORDERS” (Yumanity Therapeutics, Inc., priority 2019, published 2020)
